Test results taken from ChEMBL document CHEMBL4480432, “Expansion of a novel lead targeting M. tuberculosis DHFR as antitubercular agents” (Bioorg Med Chem, 2019).
In brackets after ≈: the same amount, converted by molar mass.

How the values were obtained:
[1] = Sub-acute toxicity in albino Wistar rat assessed as change in respiration at 1.25 to 10 mg/kg, po administered for 28 days; assay type: organism-based; details: in vivo, 672 h
[2] = Sub-acute toxicity in albino Wistar rat assessed as change in hemoglobin level at 5 mg/kg, po administered for 28 days measured post last dose (reference value: 12.14 +/- 1.45 g%); assay type: organism-based; details: in vivo, 672 h
[3] = Sub-acute toxicity in albino Wistar rat assessed as effect on eyes at 1.25 to 10 mg/kg, po administered for 28 days; assay type: organism-based; details: in vivo, 672 h
[4] = Sub-acute toxicity in albino Wistar rat assessed as change in MDA level per mg protein at 1.25 mg/kg, po administered for 28 days measured post last dose (reference value: 0.91 +/- 0.1 nmol); assay type: organism-based; details: in vivo, 672 h
[5] = Sub-acute toxicity in albino Wistar rat assessed as change in ALT level at 5 mg/kg, po administered for 28 days measured post last dose (reference value: 12.19 +/- 1.78 U/L); assay type: organism-based; details: in vivo, 672 h
[6] = Sub-acute toxicity in albino Wistar rat assessed as change in ALT level at 1.25 mg/kg, po administered for 28 days measured post last dose (reference value: 12.19 +/- 1.78 U/L); assay type: organism-based; details: in vivo, 672 h
Dihydrofolate reductase = target: T1, Dihydrofolate reductase (Mycobacterium tuberculosis, UniProt P9WNX1); assay: Inhibition of Mycobacterium tuberculosis H37Rv DHFR expressed in Escherichia coli BL21(DE3) assessed as reduction in consumption of NADPH using DHF as substrate preincubated for 1 min followed by DHF addition and measured for 2 mins by spectrophotometric method
T1 sequence (P9WNX1 whole entry): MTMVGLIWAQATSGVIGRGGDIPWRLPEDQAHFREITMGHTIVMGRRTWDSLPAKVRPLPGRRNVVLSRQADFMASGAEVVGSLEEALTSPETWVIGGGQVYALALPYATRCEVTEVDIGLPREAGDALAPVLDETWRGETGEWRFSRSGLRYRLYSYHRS

[7] = Sub-acute toxicity in albino Wistar rat assessed as lethargy at 1.25 to 10 mg/kg, po administered for 28 days; assay type: organism-based; details: in vivo, 672 h
[8] = Sub-acute toxicity in albino Wistar rat assessed as change in serum protein level at 2.5 mg/kg, po administered for 28 days measured post last dose (reference value: […]); assay type: organism-based; details: in vivo, 672 h
[9] = Sub-acute toxicity in albino Wistar rat assessed as change in Urea level at 2.5 mg/kg, po administered for 28 days measured post last dose (reference value: 24.54 +/- 2.12 mg/dl); assay type: organism-based; details: in vivo, 672 h
[10] = Sub-acute toxicity in albino Wistar rat assessed as change in ALT level at 2.5 mg/kg, po administered for 28 days measured post last dose (reference value: 12.19 +/- 1.78 U/L); assay type: organism-based; details: in vivo, 672 h
[11] = Sub-acute toxicity in albino Wistar rat assessed as change in CAT level per mg protein at 5 mg/kg, po administered for 28 days measured post last dose (reference value: 28.45 +/- 2.1 U); assay type: organism-based; details: in vivo, 672 h
[12] = Sub-acute toxicity in albino Wistar rat assessed as change in ALT level at 10 mg/kg, po administered for 28 days measured post last dose (reference value: 12.19 +/- 1.78 U/L); assay type: organism-based; details: in vivo, 672 h
[13] = system: DHFR (human versus Mycobacterium tuberculosis H37Rv); assay: Selectivity index, ratio of IC50 for human DHFR to IC50 for Mycobacterium tuberculosis H37Rv DHFR expressed in Escherichia coli BL21(DE3); assay type: toxicity; details: human and Mycobacterium tuberculosis H37Rv; read-out: Ratio IC50
[14] = Sub-acute toxicity in albino Wistar rat assessed as coma at 1.25 to 10 mg/kg, po administered for 28 days; assay type: organism-based; details: in vivo, 672 h
[15] = Sub-acute toxicity in albino Wistar rat assessed as change in SOD level per mg protein at 5 mg/kg, po administered for 28 days measured post last dose (reference value: 4.85 +/- 0.34 U); assay type: organism-based; details: in vivo, 672 h
[16] = system: Mycobacterium tuberculosis; assay: microbe, parasite or virus in culture; details: H37Rv ATCC 27294, 168 h
Description: Antitubercular activity against Mycobacterium tuberculosis H37Rv ATCC 27294 after 7 days by microplate alamar blue method

[17] = Sub-acute toxicity in albino Wistar rat assessed as change in AST level at 5 mg/kg, po administered for 28 days measured post last dose (reference value: 25 +/- 1.76 U/L); assay type: organism-based; details: in vivo, 672 h
[18] = Sub-acute toxicity in albino Wistar rat assessed as change in MDA level per mg protein at 5 mg/kg, po administered for 28 days measured post last dose (reference value: 0.91 +/- 0.1 nmol); assay type: organism-based; details: in vivo, 672 h
[19] = Sub-acute toxicity in albino Wistar rat assessed as change in MDA level per mg protein at 2.5 mg/kg, po administered for 28 days measured post last dose (reference value: 0.91 +/- 0.1 nmol); assay type: organism-based; details: in vivo, 672 h
[20] = Sub-acute toxicity in albino Wistar rat assessed as effect on behavioral changes at 1.25 to 10 mg/kg, po administered for 28 days; assay type: organism-based; details: in vivo, 672 h
[21] = Sub-acute toxicity in albino Wistar rat assessed as effect on clinical changes at 1.25 to 10 mg/kg, po administered for 28 days; assay type: organism-based; details: in vivo, 672 h
[22] = Sub-acute toxicity in albino Wistar rat assessed as change in body weight at 1.25 to 10 mg/kg, po administered for 28 days; assay type: organism-based; details: in vivo, 672 h
[23] = Sub-acute toxicity in albino Wistar rat assessed as convulsion at 1.25 to 10 mg/kg, po administered for 28 days; assay type: organism-based; details: in vivo, 672 h
[24] = Sub-acute toxicity in albino Wistar rat assessed as change in CAT level per mg protein at 2.5 mg/kg, po administered for 28 days measured post last dose (reference value: 28.45 +/- 2.1 U); assay type: organism-based; details: in vivo, 672 h
[25] = Sub-acute toxicity in albino Wistar rat assessed as mortality at 1.25 to 10 mg/kg, po administered for 28 days; assay type: organism-based; details: in vivo, 672 h
[26] = Sub-acute toxicity in albino Wistar rat assessed as change in AST level at 1.25 mg/kg, po administered for 28 days measured post last dose (reference value: 22.5 +/- 1.76 U/L); assay type: organism-based; details: in vivo, 672 h
[27] = Sub-acute toxicity in albino Wistar rat assessed as change in autonomic nervous system at 1.25 to 10 mg/kg, po administered for 28 days; assay type: organism-based; details: in vivo, 672 h
[28] = Sub-acute toxicity in albino Wistar rat assessed as change in serum protein level at 5 mg/kg, po administered for 28 days measured post last dose (reference value: […]); assay type: organism-based; details: in vivo, 672 h
[29] = Sub-acute toxicity in albino Wistar rat assessed as effect on somatomotor system at 1.25 to 10 mg/kg, po administered for 28 days; assay type: organism-based; details: in vivo, 672 h
[30] = Sub-acute toxicity in albino Wistar rat assessed as effect on skin at 1.25 to 10 mg/kg, po administered for 28 days; assay type: organism-based; details: in vivo, 672 h
[31] = Sub-acute toxicity in albino Wistar rat assessed as change in AST level at 2.5 mg/kg, po administered for 28 days measured post last dose (reference value: 22.5 +/- 1.76 U/L); assay type: organism-based; details: in vivo, 672 h
[32] = Sub-acute toxicity in albino Wistar rat assessed as change in Urea level at 1.25 mg/kg, po administered for 28 days measured post last dose (reference value: 24.54 +/- 2.12 mg/dl); assay type: organism-based; details: in vivo, 672 h

CC(=O)c1c(C)n(Cc2ccccc2)c2ccc(OCc3cn(-c4ccc(Br)cc4)nn3)cc12
Activity [1]: Non-Toxic
Activity [2]: 13.45 g%
Activity [3]: Non-Toxic
Activity [4]: 0.95 nmol
Activity [5]: 14.32 U/L
Activity [6]: 13.09 U/L
IC50 (Dihydrofolate reductase): 6.79 µM
Activity [7]: Non-Toxic
Activity [8]: 7.32 mg/dL
Activity [9]: 26.54 mg/dL
Activity [10]: 12.68 U/L
Activity [11]: 31.34 U
Activity [12]: 15.23 U/L
selectivity ratio [13]: 18.4
Activity [14]: Non-Toxic
Activity [15]: 5.21 U
MIC [16]: 3.03 µM (≈ 1.56 µg/mL)
Activity [17]: 26.75 U/L
Activity [18]: 1.11 nmol
Activity [19]: 1.05 nmol
Activity [20]: Non-Toxic
Activity [21]: Non-Toxic
Activity [22]: Toxic
Activity [23]: Non-Toxic
Activity [24]: 30.11 U
Activity [25]: Non-Toxic
Activity [26]: 23.43 U/L
Activity [27]: Non-Toxic
Activity [28]: 7.54 mg/dL
Activity [29]: Non-Toxic
Activity [30]: Non-Toxic
Activity [31]: 24 U/L
Activity [32]: 25.12 mg/dL
